# Data as given in US20250163032A1, “NOVEL MOLECULES AS INHIBITORS OF DNA DAMAGE REPAIR PATHWAY” (VRise Therapeutics, Inc., priority 2023, published 2025).
# How the values were obtained:
# [1] = Metabolic stability, mouse liver microsomes; assay type: in vitro ADME; conditions: pH 7.4, 1 μM test item, 1 mM NADPH, 60 minutes
# Description: (§1) Test-8: Metabolic Stability
# (§2) Metabolic stability studies were conducted using mouse, rat, and human liver microsomes. The protocol for the studies with mouse and human liver microsomes (Gibco-Thermo) is provided below.
# (§3) In brief, 0.25 mg protein was preincubated in phosphate buffer (pH˜7.4) for 5 min at 37° C. and then added with 1 μM test item followed by addition of 1 mM NADPH (cof actor) and incubated further over a period 60 minutes in duplicate. The reaction mixture was terminated with acetonitrile containing an internal standard and centrifuged further to analyse the test item remaining in the supernatant by LC-MS/MS at different intervals. The percent parent compound remaining was calculated in comparison with similar samples terminated at 0 minutes.
# [2] = Metabolic stability, human liver microsomes; assay type: in vitro ADME; conditions: pH 7.4, 1 μM test item, 1 mM NADPH, 60 minutes
# Description: as §1, §2, §3
# USP1/UAF1 = USP1/UAF1 (Homo sapiens, UniProt O94782); experiment: USP1/UAF 1 assay (ubiquitin-rhodamine110 fluorometric deubiquitinase assay); assay type: biochemical; conditions: for inhibition at 10 µM: read-out: Biochemical assay % inhibition @10 μM; for IC50: 1 nM USP1/UAF1, 150 nM Ub-Rho, read-out: Biochemical assay IC50; for inhibition at 1 µM: read-out: Biochemical assay % inhibition @1 μM
# Description: Test-1: USP1/UAF 1 Assay:
# Deubiquitinase activity of USP1/UAF1 was monitored in a fluorometric assay using ubiquitin-rhodamine110 as substrate. Briefly, enzymatic reactions were conducted in an assay buffer composed of 50 mM HEPES, pH 7.8, 0.5 mM EDTA, 100 mM NaCl, 1 mM TCEP, 0.1 mg/mL BSA, and 0.01% Tween-20 that contained 1 nM USP1/UAF1. Compounds were tested at desired concentrations. The plates were incubated for 15 min to attain equilibrium, and then the enzymatic reaction was initiated by dispensing 150 nM Ub-Rho solution. Fluorescence measurement was performed in a high throughput CCD imager, where kinetic measurements of rhodamine fluorescence were acquired using a 480 nm excitation/540 nm emission filter set. The change in fluorescence intensity over a 5-minute reaction period (typically associated with less than 10% substrate conversion) was normalized against no-inhibitor and no-enzyme controls and the resulting percent inhibition data were fitted to a sigmoidal dose response using a four-parameter Hill equation. Data was be analysed and percent inhibition and/or IC50 for each test compound is calculated accordingly.
# MD-MBA-436 = experiment: Cell viability assay (CTG assay); assay type: cell-based, human; conditions: 7th day; for IC50 / inhibition at 10 µM: Homo sapiens
# Description: Test 5: Cell Viability Assay (CTG Assay):
# Growth inhibition assays was carried out using […] supplemented media. Cells were seeded at a desired concentration of 1000-6,000 cells/well in a well plate with desired number of wells. Test compounds at a desired concentration range were added after 24 hours. Growth was assessed using the Cell Titer-Glo (CTG, Cell Signaling) for measuring reduction at 7th day after the addition of test compound chemiluminescence values were read by a plate reader. Data was be analysed and percent inhibition and/or IC50 for each test compound is calculated accordingly.
# Chain of USP1/UAF1 (O94782 whole entry): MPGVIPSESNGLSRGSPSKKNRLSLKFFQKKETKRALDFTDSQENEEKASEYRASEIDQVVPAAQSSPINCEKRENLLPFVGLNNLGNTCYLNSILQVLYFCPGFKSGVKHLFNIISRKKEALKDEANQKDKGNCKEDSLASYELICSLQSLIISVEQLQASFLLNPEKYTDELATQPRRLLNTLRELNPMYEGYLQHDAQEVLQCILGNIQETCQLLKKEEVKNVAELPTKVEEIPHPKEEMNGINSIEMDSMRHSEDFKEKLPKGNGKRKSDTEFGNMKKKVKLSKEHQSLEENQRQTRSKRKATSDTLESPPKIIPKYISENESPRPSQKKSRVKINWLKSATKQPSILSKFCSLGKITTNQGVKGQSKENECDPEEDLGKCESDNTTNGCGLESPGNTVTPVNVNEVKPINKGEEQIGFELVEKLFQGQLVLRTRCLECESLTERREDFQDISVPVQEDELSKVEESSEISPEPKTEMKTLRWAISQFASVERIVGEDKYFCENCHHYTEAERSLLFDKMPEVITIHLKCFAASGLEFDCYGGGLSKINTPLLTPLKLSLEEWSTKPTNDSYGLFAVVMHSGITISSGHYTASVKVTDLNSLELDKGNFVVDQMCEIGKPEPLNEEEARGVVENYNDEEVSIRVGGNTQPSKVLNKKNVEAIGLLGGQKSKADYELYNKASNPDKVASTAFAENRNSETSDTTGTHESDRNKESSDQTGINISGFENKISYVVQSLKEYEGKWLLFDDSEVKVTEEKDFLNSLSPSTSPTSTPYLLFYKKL
# Chain of USP1/UAF1 (Q8TAF3 whole entry partner): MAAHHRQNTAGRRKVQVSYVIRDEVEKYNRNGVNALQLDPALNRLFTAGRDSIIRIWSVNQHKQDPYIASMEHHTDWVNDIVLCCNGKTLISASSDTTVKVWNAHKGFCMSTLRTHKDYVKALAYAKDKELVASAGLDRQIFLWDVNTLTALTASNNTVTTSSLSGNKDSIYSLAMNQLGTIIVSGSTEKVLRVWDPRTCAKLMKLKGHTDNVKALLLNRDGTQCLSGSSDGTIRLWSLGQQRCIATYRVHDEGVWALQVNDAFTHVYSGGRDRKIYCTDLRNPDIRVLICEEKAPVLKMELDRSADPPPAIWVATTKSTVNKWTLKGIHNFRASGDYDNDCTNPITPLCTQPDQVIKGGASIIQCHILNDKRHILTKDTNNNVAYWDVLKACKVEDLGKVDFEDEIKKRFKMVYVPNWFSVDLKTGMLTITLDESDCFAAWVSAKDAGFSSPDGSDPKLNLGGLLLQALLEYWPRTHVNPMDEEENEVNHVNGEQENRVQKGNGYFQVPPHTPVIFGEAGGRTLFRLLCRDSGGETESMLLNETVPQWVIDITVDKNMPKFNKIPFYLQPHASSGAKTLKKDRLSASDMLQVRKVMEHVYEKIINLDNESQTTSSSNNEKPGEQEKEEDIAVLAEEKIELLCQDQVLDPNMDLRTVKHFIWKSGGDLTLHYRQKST
SMILES,half-life at 1 μM [1] [min],half-life at 1 μM [2] [min],IC50 (USP1/UAF1) [nM],further results
"COc1ncnc(C2CC2)c1-c1nc(OCc2ccc(-c3nc(C(F)(F)F)cn3C)cc2)c2[nH]cnc2n1 [Example 26, 2-(4-cyclopropyl-6-methoxypyrimidin-5-yl)-6-((4-(1-methyl-4-(trifluoromethyl)-1H-imidazol-2-yl)benzyl)oxy)-7H-purine]",284,683,–,inhibition at 10 µM (USP1/UAF1): > 75%
"CC(C)c1ccccc1-c1nc(NCc2ccc(-c3nc(C(F)(F)F)cn3C)cc2)c2c(c1C#N)CCC2 [Example 4, 3-(2-isopropylphenyl)-1-((4-(1-methyl-4-(trifluoromethyl)-1H-imidazol-2-yl)benzyl)amino)-6,7-dihydro-5H-cyclopenta[c]pyridine-4-carbonitrile]",7.71,7.13,50 to 100,IC50 (MD-MBA-436): ≥ 1000 nM
"COc1ncnc(C2CC2)c1-c1nc(NCc2ccc(-c3nc(C(F)(F)F)cn3C)cc2)c2c(c1C#N)CCC2 [Example 2, 3-(4-cyclopropyl-6-methoxypyrimidin-5-yl)-1-((4-(1-methyl-4-(trifluoromethyl)-1H-imidazol-2-yl)benzyl)amino)-6,7-dihydro-5H-cyclopenta[c]pyridine-4-carbonitrile]",–,20.4,100 to 1000,inhibition at 10 µM (MD-MBA-436; @10 μM): 50 to 75%
"CC(C)c1ccccc1-c1nc(NCc2ccc(-c3nc(C(F)(F)F)cn3C)cc2)c2cccn2n1 [Example 5, 2-(2-isopropylphenyl)-N-(4-(1-methyl-4-(trifluoromethyl)-1H-imidazol-2-yl)benzyl)pyrrolo[2,1-f][1,2,4]triazin-4-amine]",–,–,< 50,IC50 (MD-MBA-436): ≥ 1000 nM
"COc1ncnc(C2CC2)c1-c1nc2c(c(N(Cc3ccc(-c4nc(C(F)(F)F)cn4C)cc3)C(N)=O)n1)CCC2 [Example 12, 1-(2-(4-cyclopropyl-6-methoxypyrimidin-5-yl)-6,7-dihydro-5H-cyclopenta[d]pyrimidin-4-yl)-1-(4-(1-methyl-4-(trifluoromethyl)-1H-imidazol-2-yl)benzyl)urea]",40.2,9,–,inhibition at 10 µM (MD-MBA-436; @10 μM): 50 to 75%; inhibition at 1 µM (USP1/UAF1): > 75%
"COc1ncnc(C2CC2)c1-c1nc(NCc2ccc(-c3nc(C(F)(F)F)cn3C(C)C)cc2)c2cccn2n1 [Example 22, 2-(4-cyclopropyl-6-methoxypyrimidin-5-yl)-N-(4-(1-isopropyl-4-(trifluoromethyl)-1H-imidazol-2-yl)benzyl)pyrrolo[2,1-f][1,2,4]triazin-4-amine]",–,–,< 50,IC50 (MD-MBA-436): 50 to 100 nM
"CC(C)c1ccccc1-c1nc2c(c(OCc3ccc(-c4nc(C(F)(F)F)cn4C(C)C)cc3)n1)CCC2 [Example 13, 4-((4-(1-isopropyl-4-(trifluoromethyl)-1H-imidazol-2-yl)benzyl)oxy)-2-(2-isopropylphenyl)-6,7-dihydro-5H-cyclopenta[d]pyrimidine]",9.76,–,–,inhibition at 1 µM (USP1/UAF1): 25 to 50%
"COc1ncnc(C2CC2)c1-c1nc2c(c(NCc3ccc(-c4nc(C(F)(F)F)cn4C(C)C)cc3)n1)CCC2 [Example 10, 2-(4-cyclopropyl-6-methoxypyrimidin-5-yl)-N-(4-(1-isopropyl-4-(trifluoromethyl)-1H-imidazol-2-yl)benzyl)-6,7-dihydro-5H-cyclopenta[d]pyrimidin-4-amine]",47,134,< 50,IC50 (MD-MBA-436): < 50 nM
"COc1ncnc(C2CC2)c1-c1nc(NCc2ccc(-c3nc(C(F)(F)F)cn3C)cc2)c2ncn(C3CCCCO3)c2n1 (centres unmarked) [Example 19, 2-(4-cyclopropyl-6-methoxypyrimidin-5-yl)-N-(4-(1-methyl-4-(trifluoromethyl)-1H-imidazol-2-yl)benzyl)-9-(tetrahydro-2H-pyran-2-yl)-9H-purin-6-amine]",–,–,–,inhibition at 10 µM (MD-MBA-436; @10 μM): 75 to 100%; inhibition at 1 µM (USP1/UAF1): 50 to 75%
"Cc1cnc(-c2ccccc2C(C)C)nc1NCc1ccc(-n2ccnn2)cc1 [ML323, reference compound]",7.58,30.3,–,–
"COc1cccc(F)c1-c1nc(OCc2ccc(-c3nc(C(F)(F)F)cn3C)cc2)c2ncn(C3CCCCO3)c2n1 (centres unmarked) [Example 27, 2-(2-fluoro-6-methoxyphenyl)-6-((4-(1-methyl-4-(trifluoromethyl)-1H-imidazol-2-yl)benzyl)oxy)-9-(tetrahydro-2H-pyran-2-yl)-9H-purine]",122,–,–,–
"COc1ncnc(C2CC2)c1-c1nc2c(c(NCc3ccc(-c4nc(C(F)(F)F)cn4C)cc3)c1C#N)CCC2 [Example 21, 2-(4-cyclopropyl-6-methoxypyrimidin-5-yl)-4-((4-(1-methyl-4-(trifluoromethyl)-1H-imidazol-2-yl)benzyl)amino)-6,7-dihydro-5H-cyclopenta[b]pyridine-3-carbonitriles]",–,52.7,100 to 1000,inhibition at 10 µM (MD-MBA-436; @10 μM): 50 to 75%
"COc1ncnc(C2CC2)c1-c1nc2c(c(OCc3ccc(-c4nc(C(F)(F)F)cn4C)cc3)n1)CCC2 [Example 24, 2-(4-cyclopropyl-6-methoxypyrimidin-5-yl)-4-((4-(1-methyl-4-(trifluoromethyl)-1H-imidazol-2-yl)benzyl)oxy)-6,7-dihydro-5H-cyclopenta[d]pyrimidine]",22.6,227,–,inhibition at 10 µM (MD-MBA-436; @10 μM): 75 to 100%
"CC(C)c1ccccc1-c1nc2c(c(NCc3ccc(-c4nc(C(F)(F)F)cn4C(C)C)cc3)n1)CCC2 [Example 9, N-(4-(1-isopropyl-4-(trifluoromethyl)-1H-imidazol-2-yl)benzyl)-2-(2-isopropylphenyl)-6,7-dihydro-5H-cyclopenta[d]pyrimidin-4-amine]",–,10.5,< 50,–
"CC(C)c1ccccc1-c1nc2c(c(N(Cc3ccc(-c4nc(C(F)(F)F)cn4C(C)C)cc3)C(=O)N(C)C)n1)CCC2 [Example 14, 1-(4-(1-isopropyl-4-(trifluoromethyl)-1H-imidazol-2-yl)benzyl)-1-(2-(2-isopropylphenyl)-6,7-dihydro-5H-cyclopenta[d]pyrimidin-4-yl)-3,3-dimethylurea]",–,3.21,–,inhibition at 1 µM (USP1/UAF1): 25 to 50%
"Cn1cc(C(F)(F)F)nc1-c1ccc(CNc2nc(-c3ccc(C(F)(F)F)cc3)nc3c2CCC3)cc1 [Example 71, N-(4-(1-methyl-4-(trifluoromethyl)-1H-imidazol-2-yl)benzyl)-2-(4-(trifluoromethyl)phenyl)-6,7-dihydro-5H-cyclopenta[d]pyrimidin-4-amine]",–,–,–,inhibition at 1 µM (USP1/UAF1): 50 to 75%
"COc1ccncc1-c1nc(NCc2ccc(-c3nc(C(F)(F)F)cn3C)cc2)c2[nH]cnc2n1 [Example 34, 2-(4-methoxypyridin-3-yl)-N-(4-(1-methyl-4-(trifluoromethyl)-1H-imidazol-2-yl)benzyl)-7H-purin-6-amine]",–,–,–,inhibition at 10 µM (USP1/UAF1): > 75%
"CC(C)n1cc(C(F)(F)F)nc1-c1ccc(CNc2nc(-c3c(OC(F)F)ncnc3C3CC3)nc3c2CCC3)cc1 [Example 11, 2-(4-cyclopropyl-6-(difluoromethoxy)pyrimidin-5-yl)-N-(4-(1-isopropyl-4-(trifluoromethyl)-1H-imidazol-2-yl)benzyl)-6,7-dihydro-5H-cyclopenta[d]pyrimidin-4-amine]",45.5,–,< 50,MD-MBA-436 % inhibition@10 μM (MD-MBA-436; @10 μM): A#
"CC(C)c1ccccc1-c1nc2c(c(NCc3ccc(-c4nc(C(F)(F)F)cn4C)cc3)c1C#N)CCC2 [Example 20, 2-(2-isopropylphenyl)-4-((4-(1-methyl-4-(trifluoromethyl)-1H-imidazol-2-yl)benzyl)amino)-6,7-dihydro-5H-cyclopenta[b]pyridine-3-carbonitrile]",–,–,100 to 1000,–
"Cn1cc(C(F)(F)F)nc1-c1ccc(CNc2nc(-c3cccc(C(N)=O)c3)nc3c2CCC3)cc1 [Example 72, 3-(4-((4-(1-methyl-4-(trifluoromethyl)-1H-imidazol-2-yl)benzyl)amino)-6,7-dihydro-5H-cyclopenta[d]pyrimidin-2-yl)benzamide]",–,–,–,inhibition at 1 µM (USP1/UAF1): 50 to 75%
"Cn1cc(C(F)(F)F)nc1-c1ccc(CNc2nc(N3CCOCC3)nc3nc[nH]c23)cc1 [Example 36, N-(4-(1-methyl-4-(trifluoromethyl)-1H-imidazol-2-yl)benzyl)-2-morpholino-7H-purin-6-amine]",–,–,–,inhibition at 10 µM (USP1/UAF1): 50 to 75%
